Data reported in patent US6630466B2, “Medicament compositions containing anticholinergically-effective compounds and salmeterol” (priority 1999, dated 2003).
Several values for one entry are separate records, joined by “and”; a condition that tells them apart may be missing. Identical values can stand only once. Counter-ions that a name gives are not always drawn.

How the values were obtained:
[1] = tested on: Heart Frequency of Narcotized Dogs; test: Heart frequency of narcotized dogs after inhalative application via RESPIMAT (ECG, cardiotachometer)
Description: (§1) 18 mongrel dogs with a body weight of 27 to 32 kg. Kept in individual or communal cages, pelleted standard food, last fed approximately 15 hours before the start of the tests, drinking water freely available.
(§2) After pre-medication with 2 mg/kg morphine hydrochloride i.m., 30 mg/kg pentobarbital-sodium (NEMBUTAL®) is slowly injected intravenously. The animals are relaxed with 1.0 mg/kg i.v. suxamethonium.
Registration of heart frequency is via ECG (extremity derivative II) and cardiotachometer.
After an equilibration period of 30 minutes, short-term bronchospasms are generated by i.v. injection of 10 μg/kg acetylcholine chloride—this is repeated 2-3× within a 10-minute period. […] Application of the combinations takes place with the individual combinations with an interval of approximately 1 minute. With the BINEB system, the triggering mechanism takes place at the end of the expiration phase and the atomized solution is pressed into the tracheo-bronchial tree in the following inspiration phase of the breath pump.

[2] = tested on: bronchial resistance of narcotized dogs; test: Bronchospasmolytic effect: inhibition of ACh-induced increase of pulmonary resistance in narcotized dogs after inhalative application via […]; type: in vivo, dog; settings: single substances 3 and 10 μg, combination 3 μg + 3 μg
Description: as §1, §2
After intubation via a servo ventilator 900C (Siemens), the animals are ventilated with ambient air and oxygen (4:1), frequency 15/min., breath volume 6 to 8 L/min. For registration of the breathing mechanics, breath flow is determined by means of a pressurizing pipe (flesh no. 1), installed directly before the orotracheal tube, of a differential pressure recorder and amplifier DCB-4C. A catheter is placed in the trachea and a second (balloon) catheter is placed in the lung section of the esophagus. Both are connected with a differential pressure recorder and amplifier for determination of the transpulmonary pressure. A breath mechanics computer (IFD-Mühlheim) determines the pulmonary resistance (R) from the registered pressure values. From this, a computer program VAS-1 LA (IFD-Mühlheim) calculates: [formula] […]

[3] = 3 μg inhalative, 1 min after application, individual dog
[4] = 3 μg inhalative, 5 min after application, individual dog
[5] = 3 μg inhalative, 5 min after application, mean value, n = 6
[6] = 3 μg inhalative, 10 min after application, individual dog
[7] = 3 μg inhalative, 20 min after application, individual dog
[8] = 3 μg inhalative, 30 min after application, individual dog
[9] = 3 μg inhalative, 60 min after application, individual dog
[10] = 3 μg inhalative, 120 min after application, individual dog
[11] = 3 μg inhalative, 180 min after application, individual dog
[12] = 3 μg inhalative, 180 min after application, mean value, n = 6
[13] = 10 μg inhalative, 1 min after application, individual dog
[14] = 10 μg inhalative, 5 min after application, individual dog
[15] = 10 μg inhalative, 5 min after application, mean value, n = 6
[16] = 10 μg inhalative, 10 min after application, individual dog
[17] = 10 μg inhalative, 10 min after application, mean value, n = 6
[18] = 10 μg inhalative, 20 min after application, individual dog
[19] = 10 μg inhalative, 20 min after application, mean value, n = 6
[20] = 10 μg inhalative, 30 min after application, individual dog
[21] = 10 μg inhalative, 30 min after application, mean value, n = 6
[22] = 10 μg inhalative, 60 min after application, individual dog
[23] = 10 μg inhalative, 60 min after application, mean value, n = 6
[24] = 10 μg inhalative, 120 min after application, individual dog
[25] = 10 μg inhalative, 180 min after application, individual dog
[26] = 10 μg inhalative, 180 min after application, mean value, n = 6

## COc1ccc(CC(C)NCC(O)c2ccc(O)c(NC=O)c2)cc1 (centres unmarked) [formoterol fumarate, formoterol]
[1]; [3]
  Heart frequency (beats/min.): 67.00 beats/min. and 91.00 beats/min. and 102.00 beats/min.
  Heart frequency, % alteration: 7.94% and −7.52% and 11.67% and 13.04% and 21.13% and 15.68%
[1]; 3 μg inhalative, 1 min after application, mean value, n = 6
  Heart frequency (beats/min.): 103.17 beats/min.
[1]; [4]
  Heart frequency (beats/min.): 140.00 beats/min. and 64.00 beats/min. and 95.00 beats/min.
  Heart frequency, % alteration: 11.11% and 5.26% and 6.67% and 18.01% and 28.64% and 25.41%
[1]; [5]
  Heart frequency (beats/min.): 109.50 beats/min.
  Heart frequency, % alteration: 15.85%
[1]; [6]
  Heart frequency (beats/min.): 100.00 beats/min. and 110.00 beats/min.
  Heart frequency, % alteration: 36.51% and 21.80% and 66.67% and 36.65% and 29.58%
[1]; 3 μg inhalative, 10 min after application, mean value, n = 6
  Heart frequency, % alteration: 37.72%
[1]; [7]
  Heart frequency (beats/min.): 165.00 beats/min. and 95.00 beats/min. and 100.00 beats/min. and 141.00 beats/min.
  Heart frequency, % alteration: 41.80% and 24.06% and 54.33% and 24.44% and 32.39% and 36.22%
[1]; 3 μg inhalative, 20 min after application, mean value, n = 6
  Heart frequency, % alteration: 36.17%
[1]; [8]
  Heart frequency (beats/min.): 159.00 beats/min. and 89.00 beats/min. and 95.00 beats/min.
  Heart frequency, % alteration: 46.03% and 48.33% and 18.01% and 38.38%
[1]; 3 μg inhalative, 30 min after application, mean value, n = 6
  Heart frequency, % alteration: 34.41%
[1]; [9]
  Heart frequency (beats/min.): 86.00 beats/min. and 94.00 beats/min. and 140.00 beats/min.
  Heart frequency, % alteration: 41.80% and 15.04% and 43.33% and 31.46% and 38.38%
[1]; 3 μg inhalative, 60 min after application, mean value, n = 6
  Heart frequency, % alteration: 31.13%
[1]; [10]
  Heart frequency (beats/min.): 88.00 beats/min. and 94.00 beats/min. and 130.00 beats/min. and 120.00 beats/min.
  Heart frequency, % alteration: 21.69% and 46.67% and 29.73%
[1]; [11]
  Heart frequency (beats/min.): 140.00 beats/min. and 86.00 beats/min. and 96.00 beats/min. and 130.00 beats/min. and 120.00 beats/min.
  Heart frequency, % alteration: 14.29% and 5.26% and 43.33% and 19.25% and 29.73%
[1]; [12]
  Heart frequency (beats/min.): 113.33 beats/min.
  Heart frequency, % alteration: 22.32%
[1]; [13]
  Heart frequency (beats/min.): 96.00 beats/min.
  Heart frequency, % alteration: 22.75% and 9.02% and 81.67% and 19.25% and −1.41% and 31.89%
[1]; 10 μg inhalative, 1 min after application, mean value, n = 6
  Heart frequency, % alteration: 27.20%
[1]; [14]
  Heart frequency (beats/min.): 136.00 beats/min. and 120.00 beats/min. (2×)
  Heart frequency, % alteration: 61.90% and 2.26% and 143.33% and 49.07% and 12.68% and 31.89%
[1]; [15]
  Heart frequency (beats/min.): 132.83 beats/min.
  Heart frequency, % alteration: 50.19%
[1]; [16]
  Heart frequency (beats/min.): 191.00 beats/min. and 152.00 beats/min. and 144.00 beats/min. and 160.00 beats/min. and 130.00 beats/min. and 155.00 beats/min.
  Heart frequency, % alteration: 64.02% and 43.61% and 153.33% and 78.88% and 50.23% and 40.54%
[1]; [17]
  Heart frequency (beats/min.): 155.33 beats/min.
  Heart frequency, % alteration: 71.77%
[1]; [18]
  Heart frequency (beats/min.): 204.00 beats/min. and 156.00 beats/min. and 135.00 beats/min. and 157.00 beats/min.
  Heart frequency, % alteration: 66.14% and 53.38% and 155.00% and 93.79% and 48.36% and 45.95%
[1]; [19]
  Heart frequency (beats/min.): 160.50 beats/min.
  Heart frequency, % alteration: 77.10%
[1]; [20]
  Heart frequency (beats/min.): 207.00 beats/min. and 150.00 beats/min. (2×) and 156.00 beats/min. and 140.00 beats/min. and 159.00 beats/min.
  Heart frequency, % alteration: 68.25% and 55.64% and 150.00% and 93.79% and 40.85% and 51.35%
[1]; [21]
  Heart frequency (beats/min.): 160.33 beats/min.
  Heart frequency, % alteration: 76.65%
[1]; [22]
  Heart frequency (beats/min.): 210.00 beats/min. and 149.00 beats/min. and 140.00 beats/min. (2×) and 150.00 beats/min. and 163.00 beats/min.
  Heart frequency, % alteration: 72.49% and 57.89% and 148.33% and 73.91% and 40.85% and 51.35%
[1]; [23]
  Heart frequency (beats/min.): 158.67 beats/min.
  Heart frequency, % alteration: 74.14%
[1]; [24]
  Heart frequency (beats/min.): 209.00 beats/min. and 140.00 beats/min. and 135.00 beats/min. and 176.00 beats/min.
  Heart frequency, % alteration: 86.24% and 57.14% and 143.33% and 73.91% and 45.95%
[1]; 10 μg inhalative, 120 min after application, mean value, n = 6
  Heart frequency, % alteration: 73.79%
[1]; [25]
  Heart frequency (beats/min.): 205.00 beats/min. and 141.00 beats/min. and 130.00 beats/min. and 135.00 beats/min. and 152.00 beats/min.
  Heart frequency, % alteration: 60.85% and 54.14% and 135.00% and 61.49% and 45.95%
[1]; [26]
  Heart frequency (beats/min.): 151.33 beats/min.
  Heart frequency, % alteration: 65.59%
[1]; high dosage (10 μg)
  maximum increase of heart frequency: over 90%
[1]; high dosage (10 μg), end of test (180 minutes)
  increase of heart frequency after the end of the test: over 80%
[2]
  onset of maximum bronchospasmolytic effect: rapidly occurs
[2]; test duration 180 minutes
  effective duration of bronchospasmolytic effect: comparatively short
